Results taken from US20230365592A1 (Agios Pharmaceuticals, Inc., priority 2022, published 2023).

molecular target: T1, human PAH with the R408W mutation (Homo sapiens, UniProt P00439, R408W); test: Cell Based Phenylalanine Flux Assay; details: A375 cells expressing human PAH R408W; 24 hrs compound incubation; 13C-Tyrosine by LC-MS; average where tested multiple times; read-out: AC50;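 note: after compound treatment, cells received sepiapterin plus isotope-labelled Phenylalanine for 4 hours, then labelled Tyrosine in the medium was quantified, 10-point 2-fold dilution series run in duplicate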
T1 construct: expressed in transfected cells
T1 sequence (P00439 1-452 R408W): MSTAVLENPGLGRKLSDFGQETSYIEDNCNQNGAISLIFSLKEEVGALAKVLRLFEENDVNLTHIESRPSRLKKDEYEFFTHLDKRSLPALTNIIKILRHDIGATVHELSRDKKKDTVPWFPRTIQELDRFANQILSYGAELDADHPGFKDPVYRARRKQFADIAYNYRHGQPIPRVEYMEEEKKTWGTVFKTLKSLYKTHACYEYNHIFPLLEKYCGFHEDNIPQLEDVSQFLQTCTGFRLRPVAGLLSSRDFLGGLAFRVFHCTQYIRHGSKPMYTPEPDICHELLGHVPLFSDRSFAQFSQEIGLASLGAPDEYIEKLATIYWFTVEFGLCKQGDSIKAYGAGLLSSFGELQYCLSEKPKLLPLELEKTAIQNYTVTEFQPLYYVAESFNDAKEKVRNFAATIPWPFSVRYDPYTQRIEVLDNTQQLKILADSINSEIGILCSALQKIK

| AC50 [nM] | SMILES |
| --- | --- |
| < 500 | CC(C)c1cccn2nc([C@@H]3c4nc[nH]c4CCN3C(=O)c3nnc(C4CC4)o3)cc12 [Example 1882, (S)-(5-cyclopropyl-1,3,4-oxadiazol-2-yl)(4-(4-isopropylpyrazolo[1,5-a]pyridin-2-yl)-1,4,6,7-tetrahydro-5H-imidazo[4,5-c]pyridin-5-yl)methanone] |
| < 500 | CC(C)c1cccn2nc([C@@H]3c4nc[nH]c4CCN3C(=O)c3nnc(C(C)(C)F)o3)cc12 [Example 1884, (S)-(5-(2-fluoropropan-2-yl)-1,3,4-oxadiazol-2-yl)(4-(4-isopropylpyrazolo[1,5-a]pyridin-2-yl)-1,4,6,7-tetrahydro-5H-imidazo[4,5-c]pyridin-5-yl)methanone] |
| > 5000 | CC(C)c1cccn2nc([C@H]3c4nc[nH]c4CCN3C(=O)c3nnc(C(C)(C)F)o3)cc12 [Example 1885, (R)-(5-(2-fluoropropan-2-yl)-1,3,4-oxadiazol-2-yl)(4-(4-isopropylpyrazolo[1,5-a]pyridin-2-yl)-1,4,6,7-tetrahydro-5H-imidazo[4,5-c]pyridin-5-yl)methanone] |
| < 500 | CC(C)c1cccn2nc([C@@H]3c4nc[nH]c4CCN3C(=O)c3nnc(-c4cnn(C)c4)o3)cc12 [Example 1886, (S)-(4-(4-isopropylpyrazolo[1,5-a]pyridin-2-yl)-1,4,6,7-tetrahydro-5H-imidazo[4,5-c]pyridin-5-yl)(5-(1-methyl-1H-pyrazol-4-yl)-1,3,4-oxadiazol-2-yl)methanone] |
| > 5000 | CC(C)c1cccn2nc([C@H]3c4nc[nH]c4CCN3C(=O)c3nnc(-c4cnn(C)c4)o3)cc12 [Example 1887, (R)-(4-(4-isopropylpyrazolo[1,5-a]pyridin-2-yl)-1,4,6,7-tetrahydro-5H-imidazo[4,5-c]pyridin-5-yl)(5-(1-methyl-1H-pyrazol-4-yl)-1,3,4-oxadiazol-2-yl)methanone] |
| < 500 | Cn1ccc(-c2nnc(C(=O)N3CCc4[nH]cnc4[C@H]3c3cc4c(Br)cccn4n3)o2)n1 [Example 1889, (S)-(4-(4-bromopyrazolo[1,5-a]pyridin-2-yl)-1,4,6,7-tetrahydro-5H-imidazo[4,5-c]pyridin-5-yl)(5-(1-methyl-1H-pyrazol-3-yl)-1,3,4-oxadiazol-2-yl)methanone] |
| < 500 | Cc1cccn2nc([C@@H]3c4nc[nH]c4CCN3c3nnc(-c4ccc(F)cc4)o3)cc12 [Example 1891, (S)-2-(4-fluorophenyl)-5-(4-(4-methylpyrazolo[1,5-a]pyridin-2-yl)-1,4,6,7-tetrahydro-5H-imidazo[4,5-c]pyridin-5-yl)-1,3,4-oxadiazole] |
| < 500 | Fc1ccc(-c2nnc(N3CCc4[nH]cnc4[C@H]3c3cc4c(C(F)(F)F)cccn4n3)o2)cc1 [Example 1893, (S)-2-(4-fluorophenyl)-5-(4-(4-(trifluoromethyl)pyrazolo[1,5-a]pyridin-2-yl)-1,4,6,7-tetrahydro-5H-imidazo[4,5-c]pyridin-5-yl)-1,3,4-oxadiazole] |
| > 5000 | CCc1cccn2nc([C@H]3c4nc[nH]c4CCN3C(=O)c3nnc(-c4ccccn4)o3)cc12 [Example 1894, (R)-(4-(4-ethylpyrazolo[1,5-a]pyridin-2-yl)-1,4,6,7-tetrahydro-5H-imidazo[4,5-c]pyridin-5-yl)(5-(pyridin-2-yl)-1,3,4-oxadiazol-2-yl)methanone] |
| > 5000 | O=C(c1nnc(-c2ccccn2)o1)N1CCc2[nH]cnc2[C@@H]1c1cc2c(C3CC3)cccn2n1 [Example 1896, (R)-(4-(4-cyclopropylpyrazolo[1,5-a]pyridin-2-yl)-1,4,6,7-tetrahydro-5H-imidazo[4,5-c]pyridin-5-yl)(5-(pyridin-2-yl)-1,3,4-oxadiazol-2-yl)methanone] |
| < 500 | Cc1c(-c2nnc(C(=O)N3CCc4[nH]cnc4[C@H]3c3cc4c(C5CC5)cccn4n3)o2)cnn1C [Example 1898, (S)-(4-(4-cyclopropylpyrazolo[1,5-a]pyridin-2-yl)-1,4,6,7-tetrahydro-5H-imidazo[4,5-c]pyridin-5-yl)(5-(1,5-dimethyl-1H-pyrazol-4-yl)-1,3,4-oxadiazol-2-yl)methanone] |
| 1000 to 5000 | Cc1c(-c2nnc(C(=O)N3CCc4[nH]cnc4[C@@H]3c3cc4c(C5CC5)cccn4n3)o2)cnn1C [Example 1899, (R)-(4-(4-cyclopropylpyrazolo[1,5-a]pyridin-2-yl)-1,4,6,7-tetrahydro-5H-imidazo[4,5-c]pyridin-5-yl)(5-(1,5-dimethyl-1H-pyrazol-4-yl)-1,3,4-oxadiazol-2-yl)methanone] |
| < 500 | Cn1ccc(-c2nnc(C(=O)N3CCc4[nH]cnc4[C@H]3c3cc4c(C5CC5)cccn4n3)o2)n1 [Example 1900, (S)-(4-(4-cyclopropylpyrazolo[1,5-a]pyridin-2-yl)-1,4,6,7-tetrahydro-5H-imidazo[4,5-c]pyridin-5-yl)(5-(1-methyl-1H-pyrazol-3-yl)-1,3,4-oxadiazol-2-yl)methanone] |
| < 500 | CC(C)c1cccn2nc([C@@H]3c4nc[nH]c4CCN3C(=O)c3nnc(C(C)(C)C)o3)cc12 [Example 1902, (S)-(5-(tert-butyl)-1,3,4-oxadiazol-2-yl)(4-(4-isopropylpyrazolo[1,5-a]pyridin-2-yl)-1,4,6,7-tetrahydro-5H-imidazo[4,5-c]pyridin-5-yl)methanone] |
| > 5000 | CC(C)c1cccn2nc([C@H]3c4nc[nH]c4CCN3C(=O)c3nnc(-c4ccccn4)o3)cc12 [Example 1904, (R)-(4-(4-isopropylpyrazolo[1,5-a]pyridin-2-yl)-1,4,6,7-tetrahydro-5H-imidazo[4,5-c]pyridin-5-yl)(5-(pyridin-2-yl)-1,3,4-oxadiazol-2-yl)methanone] |
| < 500 | CC(C)c1cccn2nc([C@@H]3c4nc[nH]c4CCN3C(=O)c3nnc(-c4ccccn4)o3)cc12 [Example 1905, (S)-(4-(4-isopropylpyrazolo[1,5-a]pyridin-2-yl)-1,4,6,7-tetrahydro-5H-imidazo[4,5-c]pyridin-5-yl)(5-(pyridin-2-yl)-1,3,4-oxadiazol-2-yl)methanone] |
| > 5000 | CC(C)c1cccn2nc([C@H]3c4nc[nH]c4CCN3C(=O)c3nnc(-c4ncccc4F)o3)cc12 [Example 1907, (R)-(5-(3-fluoropyridin-2-yl)-1,3,4-oxadiazol-2-yl)(4-(4-isopropylpyrazolo[1,5-a]pyridin-2-yl)-1,4,6,7-tetrahydro-5H-imidazo[4,5-c]pyridin-5-yl)methanone] |
| < 500 | O=C(c1nnc(C2CC2)o1)N1CCc2[nH]cnc2[C@H]1c1cc2c(Br)cccn2n1 [Example 1908, (S)-(4-(4-bromopyrazolo[1,5-a]pyridin-2-yl)-1,4,6,7-tetrahydro-5H-imidazo[4,5-c]pyridin-5-yl)(5-cyclopropyl-1,3,4-oxadiazol-2-yl)methanone] |
| < 500 | O=C(c1nnc(-c2ccccn2)o1)N1CCc2[nH]cnc2[C@H]1c1cc2c(Br)cccn2n1 [Example 1911, (S)-(4-(4-bromopyrazolo[1,5-a]pyridin-2-yl)-1,4,6,7-tetrahydro-5H-imidazo[4,5-c]pyridin-5-yl)(5-(pyridin-2-yl)-1,3,4-oxadiazol-2-yl)methanone] |
| < 500 | FC(F)(F)c1ccc(N2CCc3[nH]cnc3[C@H]2c2cc3ccccn3n2)nc1 [Example 1914, (S)-4-(pyrazolo[1,5-a]pyridin-2-yl)-5-(5-(trifluoromethyl)pyridin-2-yl)-4,5,6,7-tetrahydro-1H-imidazo[4,5-c]pyridine] |
| > 5000 | FC(F)(F)c1ccc(N2CCc3[nH]cnc3[C@@H]2c2cc3ccccn3n2)nc1 [Example 1915, (R)-4-(pyrazolo[1,5-a]pyridin-2-yl)-5-(5-(trifluoromethyl)pyridin-2-yl)-4,5,6,7-tetrahydro-1H-imidazo[4,5-c]pyridine] |
| < 500 | FC(F)c1cccn2nc([C@@H]3c4nc[nH]c4CCN3c3ccc(C(F)(F)F)cn3)cc12 [Example 1916, (S)-4-(4-(difluoromethyl)pyrazolo[1,5-a]pyridin-2-yl)-5-(5-(trifluoromethyl)pyridin-2-yl)-4,5,6,7-tetrahydro-1H-imidazo[4,5-c]pyridine] |
| > 5000 | FC(F)c1cccn2nc([C@H]3c4nc[nH]c4CCN3c3ccc(C(F)(F)F)cn3)cc12 [Example 1917, (R)-4-(4-(difluoromethyl)pyrazolo[1,5-a]pyridin-2-yl)-5-(5-(trifluoromethyl)pyridin-2-yl)-4,5,6,7-tetrahydro-1H-imidazo[4,5-c]pyridine] |
| 500 to 1000 | Cc1cccn2nc([C@@H]3c4nc[nH]c4CCN3C(=O)c3cnc(C4CC4)o3)cc12 [Example 1918, (S)-(2-cyclopropyloxazol-5-yl)(4-(4-methylpyrazolo[1,5-a]pyridin-2-yl)-1,4,6,7-tetrahydro-5H-imidazo[4,5-c]pyridin-5-yl)methanone] |
| < 500 | CCc1cccn2nc([C@@H]3c4nc[nH]c4CCN3C(=O)c3nnc(C(C)(C)F)o3)cc12 [Example 1922, (S)-(4-(4-ethylpyrazolo[1,5-a]pyridin-2-yl)-1,4,6,7-tetrahydro-5H-imidazo[4,5-c]pyridin-5-yl)(5-(2-fluoropropan-2-yl)-1,3,4-oxadiazol-2-yl)methanone] |
| > 5000 | CCc1cccn2nc([C@H]3c4nc[nH]c4CCN3C(=O)c3nnc(-c4cnn(C)c4)o3)cc12 [Example 1925, (R)-(4-(4-ethylpyrazolo[1,5-a]pyridin-2-yl)-1,4,6,7-tetrahydro-5H-imidazo[4,5-c]pyridin-5-yl)(5-(1-methyl-1H-pyrazol-4-yl)-1,3,4-oxadiazol-2-yl)methanone] |
